Data as given in patent publication US8143290B2, “Chemical compounds 572” (AstraZeneca AB, priority 2006, dated 2012).
pIC50: −log10 of the molar value.

Target: T1, recombinant human GR (Homo sapiens, UniProt P04150)
T1 construct: purchased Panvera/Invitrogen P2812 (kit P2893)
T1 sequence (P04150 1-777): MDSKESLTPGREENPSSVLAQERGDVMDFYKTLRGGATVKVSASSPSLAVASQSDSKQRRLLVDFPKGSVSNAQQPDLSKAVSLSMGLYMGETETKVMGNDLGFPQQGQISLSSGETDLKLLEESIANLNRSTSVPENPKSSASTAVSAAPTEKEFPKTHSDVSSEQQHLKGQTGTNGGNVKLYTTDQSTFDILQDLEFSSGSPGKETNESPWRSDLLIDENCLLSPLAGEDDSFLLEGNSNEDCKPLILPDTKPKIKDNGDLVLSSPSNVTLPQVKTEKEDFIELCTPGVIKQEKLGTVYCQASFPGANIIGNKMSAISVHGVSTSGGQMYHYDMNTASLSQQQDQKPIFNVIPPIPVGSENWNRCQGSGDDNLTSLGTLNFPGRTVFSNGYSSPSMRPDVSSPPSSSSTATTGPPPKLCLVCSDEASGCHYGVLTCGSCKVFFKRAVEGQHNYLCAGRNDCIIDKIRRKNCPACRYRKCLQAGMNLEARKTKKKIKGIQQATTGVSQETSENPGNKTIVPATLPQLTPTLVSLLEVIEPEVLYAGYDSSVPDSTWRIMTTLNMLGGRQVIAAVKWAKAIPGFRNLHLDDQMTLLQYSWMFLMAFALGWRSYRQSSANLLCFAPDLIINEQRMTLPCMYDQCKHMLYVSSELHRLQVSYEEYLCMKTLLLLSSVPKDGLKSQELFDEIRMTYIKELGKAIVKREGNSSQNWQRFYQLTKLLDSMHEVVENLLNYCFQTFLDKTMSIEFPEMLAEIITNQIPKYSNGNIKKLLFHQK
Assay: Human Glucocorticoid Receptor (GR) Assay, fluorescence polarization
Format: binding
Conditions: GS Red tracer, incubated 2 h at r.t., XLfit model 205, read-out: GRhuFL_FP_v2 Mean IC50
Procedure: Human Glucocorticoid Receptor (GR) Assay
The assay is based on a commercial kit from Panvera/Invitrogen (Part number P2893). The assay technology is fluorescence polarization. […] The GR and Stabilizing Peptide reagents are stored at −70° C. while the GS Red is stored at −20° C. Also included in the kit are 1M DTT (Panvera, Part number P2325, stored at −20° C.) and GR Screening buffer 10× (Panvera, Part number P2814, stored at −70° C. initially but once thawed stored at r.t.). Avoid repeated freeze/thaws for all reagents. The GR Screening buffer 10× comprises 100 mM potassium phosphate, 200 mM sodium molybdate, 1 mM EDTA and 20% DMSO.
0% control was 100% DMSO and 100% control was […] Dexamethasone. Background solution (8 μL; assay buffer 10×, Stabilizing Peptide, DTT and ice cold MQ water) was added to the background wells. GS Red solution (7 μL; assay buffer 10×, Stabilizing Peptide, DTT, GS Red and ice cold water) was added to all wells except background wells. GR solution (7 μL; assay buffer 10×, Stabilizing Peptide, DTT, GR and ice cold water) was added to all wells. The plate was sealed and incubated in a dark at r.t. for 2 h.

| pIC50 | SMILES |
| --- | --- |
| 7.62 | COCC(=O)N[C@@H](CO)C(Oc1ccc2c(cnn2-c2ccc(F)cc2)c1)c1cccc(F)c1 (mixture of isomers) [Example 113, N-[(1S)-2-(3-Fluorophenyl)-2-{[1-(4-fluorophenyl)-1H-indazol-5-yl]oxy}-1-(hydroxymethyl)ethyl]-2-methoxyacetamide] |
| 7.05 | C[C@H](NC(=O)C(F)(F)F)[C@H](COc1ccccc1)Oc1ccc2c(cnn2-c2ccc(F)cc2)c1 (racemic) [Example 70, 2,2,2-Trifluoro-N-[(2RS,3SR)-3-[1-(4-fluorophenyl)indazol-5-yl]oxy-4-phenoxy-butan-2-yl]acetamide] |
| 8.42 | C[C@H](NC(=O)C(F)(F)F)[C@H](Oc1cc2cnn(-c3ccc(F)cc3)c2cc1Cl)c1ccc(F)cc1 (racemic) [Example 99, N-[(1RS,2SR)-1-[6-chloro-1-(4-fluorophenyl)indazol-5-yl]oxy-1-(4-fluorophenyl)propan-2-yl]-2,2,2-trifluoro-acetamide] |
| 8.04 | CC(=O)NC(C)C(Oc1cc2cnn(-c3ccc(F)cc3)c2cc1Cl)c1ccc(F)cc1 (racemic) [Example 100, N-[(1RS,2SR)-1-[6-chloro-1-(4-fluorophenyl)indazol-5-yl]oxy-1-(4-fluorophenyl)propan-2-yl]acetamide] |
| 8.77 | C[C@H](NC(=O)C(F)(F)F)[C@@H](COc1ccccc1)Oc1ccc2c(cnn2-c2ccc(F)cc2)c1 (single isomer, unassigned) [Example 68, 2,2,2-Trifluoro-N-[(2S*,3S*)-3-[1-(4-fluorophenyl)indazol-5-yl]oxy-4-phenoxy-butan-2-yl]acetamide] |
| 7.12 | C[C@@H](NC(=O)C(F)(F)F)[C@H](COc1ccccc1)Oc1ccc2c(cnn2-c2ccc(F)cc2)c1 (single isomer, unassigned) [Example 69, 2,2,2-trifluoro-N-[2R*,3R*-3-[1-(4-fluorophenyl)indazol-5-yl]oxy-4-phenoxy-butan-2-yl]acetamide] |
| 7.82 | CC(=O)N[C@@H](C)[C@H](Oc1cc2cnn(-c3ccc(F)cc3)c2cc1Cl)c1ccc(F)cc1 (single isomer, unassigned) [Example 101, N-[(1S*,2R*)-1-[6-chloro-1-(4-fluorophenyl)indazol-5-yl]oxy-1-(4-fluorophenyl)propan-2-yl]acetamide] |
| 8.60 | CC(=O)N[C@@H](C)[C@H](Oc1cc2cnn(-c3ccc(F)cc3)c2cc1Cl)c1ccc(F)cc1 (single isomer, unassigned) [Example 102, N-[(1R*,2S*)-1-[6-chloro-1-(4-fluorophenyl)indazol-5-yl]oxy-1-(4-fluorophenyl)propan-2-yl]acetamide] |
| 7.01 | CC(C)(C)C(=O)NC(C(Oc1ccc2c(cnn2-c2ccc(F)cc2)c1)c1ccccc1)C(F)(F)F (single isomer, unassigned) [Example 147D1E1, N-(1,1,1-trifluoro-3-(1-(4-fluorophenyl)-1H-indazol-5-yloxy)-3-phenylpropan-2-yl)pivalamide] |
| 7.62 | CC(C)(C)C(=O)NC(C(Oc1ccc2c(cnn2-c2ccc(F)cc2)c1)c1ccccc1)C(F)(F)F (single isomer, unassigned) [Example 147D1E2, N-(1,1,1-trifluoro-3-(1-(4-fluorophenyl)-1H-indazol-5-yloxy)-3-phenylpropan-2-yl)pivalamide] |
| 8.13 | CC(C)(C)C(=O)NC(C(Oc1ccc2c(cnn2-c2ccc(F)cc2)c1)c1ccccc1)C(F)(F)F (single isomer, unassigned) [Example 147D2E1, N-(1,1,1-trifluoro-3-(1-(4-fluorophenyl)-1H-indazol-5-yloxy)-3-phenylpropan-2-yl)pivalamide] |
| 7.92 | CC(C)(C)C(=O)NC(C(Oc1ccc2c(cnn2-c2ccc(F)cc2)c1)c1ccccc1)C(F)(F)F (single isomer, unassigned) [Example 147D2E2, N-(1,1,1-trifluoro-3-(1-(4-fluorophenyl)-1H-indazol-5-yloxy)-3-phenylpropan-2-yl)pivalamide] |
| 8.43 | Cc1cc(C)c([C@@H](Oc2ccc3c(cnn3-c3ccc(F)cc3)c2)[C@H](C)NC(=O)C(C)(C)C)cc1C (stereo in doubt) [Example 267, N-[(1R,2S)-1-[1-(4-fluorophenyl)indazol-5-yl]oxy-1-(2,4,5-trimethylphenyl)propan-2-yl]-2,2-dimethyl-propanamide] |
| 8.51 | COc1ccc(F)cc1[C@@H](Oc1ccc2c(cnn2-c2ccc(F)cc2)c1)[C@H](C)NC(=O)C1(C)CC1 (stereo in doubt) [Example 268, N-[(1R,2S)-1-(5-fluoro-2-methoxy-phenyl)-1-[1-(4-fluorophenyl)indazol-5-yl]oxy-propan-2-yl]-1-methyl-cyclopropane-1-carboxamide] |
| 8.49 | CCC(=O)N[C@@H](C)[C@H](Oc1ccc2c(cnn2-c2ccc(F)cc2)c1)c1ccccc1 [Example 3, N-((1S,2R)-2-{[1-(4-fluorophenyl)-1H-indazol-5-yl]oxy}-1-methyl-2-phenylethyl)propanamide] |
| 8.23 | COC(=O)N[C@@H](C)[C@H](Oc1ccc2c(cnn2-c2ccc(F)cc2)c1)c1ccccc1 [Example 4, Methyl ((1S,2R)-2-{[1-(4-fluorophenyl)-1H-indazol-5-yl]oxy}-1-methyl-2-phenylethyl)carbamate] |
| 8.68 | C[C@H](NC(=O)C(C)(C)O)[C@H](Oc1ccc2c(cnn2-c2ccc(F)cc2)c1)c1ccccc1 [Example 5, N-[(1R,2S)-1-[1-(4-fluorophenyl)indazol-5-yl]oxy-1-phenyl-propan-2-yl]-2-hydroxy-2-methyl-propanamide] |
| 8.70 | COCC(=O)N[C@@H](C)[C@H](Oc1ccc2c(cnn2-c2ccc(F)cc2)c1)c1ccc(SC)cc1 [Example 9, N-[(1R,2S)-1-[1-(4-fluorophenyl)indazol-5-yl]oxy-1-(4-methylsulfanylphenyl)propan-2-yl]-2-methoxy-acetamide] |
| 8.62 | CSc1ccc([C@@H](Oc2ccc3c(cnn3-c3ccc(F)cc3)c2)[C@H](C)NC(=O)COC(C)=O)cc1 [Example 10, N-[(1R,2S)-1-[1-(4-fluorophenyl)indazol-5-yl]oxy-1-(4-methylsulfanylphenyl)propan-2-yl]carbamoylmethyl acetate] |
| 8.68 | CSc1ccc([C@@H](Oc2ccc3c(cnn3-c3ccc(F)cc3)c2)[C@H](C)NC(=O)CO)cc1 [Example 11, N-[(1R,2S)-1-[1-(4-fluorophenyl)indazol-5-yl]oxy-1-(4-methylsulfanylphenyl)propan-2-yl]-2-hydroxy-acetamide] |
| 8.17 | C[C@H](NC(=O)C(F)(F)F)[C@H](Oc1ccc2c(cnn2-c2ccc(F)cc2)c1)c1ccc(SC2CC2)cc1 [Example 15, N-[(1R,2S)-1-(4-cyclopropylsulfanylphenyl)-1-[1-(4-fluorophenyl)indazol-5-yl]oxy-propan-2-yl]-2,2,2-trifluoro-acetamide] |
| 8.62 | C[C@H](NC(=O)CO)[C@H](Oc1ccc2c(cnn2-c2ccc(F)cc2)c1)c1ccccc1 [Example 16, N-[(1R,2S)-1-[1-(4-fluorophenyl)indazol-5-yl]oxy-1-phenyl-propan-2-yl]-2-hydroxy-acetamide] |
| 8.49 | C[C@H](NC(=O)CO)[C@H](Oc1ccc2c(cnn2-c2ccc(F)cc2)c1)c1ccc2ccccc2c1 [Example 21, N-[(1R,2S)-1-[1-(4-fluorophenyl)indazol-5-yl]oxy-1-naphthalen-2-yl-propan-2-yl]-2-hydroxy-acetamide] |
